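How tested: cells in 96-well plates exposed to compound for 48 hours at five concentrations. The concentration for 50% growth inhibition is given as GI50. TGI denotes the concentration required for complete inhibition of growth.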
Key:
Experiment in all cases: NCI anticancer screen, dose series, 48 h
EKVX NSCLC = test system: EKVX NSCLC
UACC-62 melanoma = test system: UACC-62 melanoma
HT29 colon = test system: HT29 colon
COLO 205 colon = test system: COLO 205 colon
OVCAR-5 ovarian = test system: OVCAR-5 ovarian
SF-268 CNS = test system: SF-268 CNS
SF-539 CNS = test system: SF-539 CNS
HCT-116 colon = test system: HCT-116 colon
CAKI-1 renal = test system: CAKI-1 renal
A549 NSCLC = test system: A549 NSCLC
MDA-MB-231 breast = test system: MDA-MB-231 breast
HL-60(TB) leukemia = test system: HL-60(TB) leukemia
OVCAR-4 ovarian = test system: OVCAR-4 ovarian
MALME-3M melanoma = test system: MALME-3M melanoma
PC-3 prostate = test system: PC-3 prostate
HOP-62 NSCLC = test system: HOP-62 NSCLC
A498 renal = test system: A498 renal
SF-295 CNS = test system: SF-295 CNS
TK-10 renal = test system: TK-10 renal
SK-OV-3 ovarian = test system: SK-OV-3 ovarian
BT-549 breast = test system: BT-549 breast
RXF 393 renal = test system: RXF 393 renal
CCRF-CEM leukemia = test system: CCRF-CEM leukemia
NCI-H460 lung = test system: NCI-H460 lung
SW-620 colon = test system: SW-620 colon
NCI-H23 lung = test system: NCI-H23 lung
HOP-92 NSCLC = test system: HOP-92 NSCLC
M14 melanoma = test system: M14 melanoma
SK-MEL-28 melanoma = test system: SK-MEL-28 melanoma
KM12 colon = test system: KM12 colon
MDA-MB-435 = test system: MDA-MB-435
MCF7 breast = test system: MCF7 breast
K-562 leukemia = test system: K-562 leukemia
U251 CNS = test system: U251 CNS
SNB-75 CNS = test system: SNB-75 CNS
OVCAR-3 ovarian = test system: OVCAR-3 ovarian
SK-MEL-2 melanoma = test system: SK-MEL-2 melanoma
NCI/ADR-RES ovarian = test system: NCI/ADR-RES ovarian
RPMI-8226 leukemia = test system: RPMI-8226 leukemia
OVCAR-8 ovarian = test system: OVCAR-8 ovarian
IGROV1 ovarian = test system: IGROV1 ovarian
ACHN renal = test system: ACHN renal
UO-31 renal = test system: UO-31 renal
NCI-H226 lung = test system: NCI-H226 lung
SK-MEL-5 melanoma = test system: SK-MEL-5 melanoma
UACC-257 melanoma = test system: UACC-257 melanoma
HCC-2998 colon = test system: HCC-2998 colon
786-0 renal = test system: 786-0 renal
T-47D breast = test system: T-47D breast
DU-145 prostate = test system: DU-145 prostate
HS 578T breast = test system: HS 578T breast
MOLT-4 leukemia = test system: MOLT-4 leukemia
HCT-15 colon = test system: HCT-15 colon
SNB-19 CNS = test system: SNB-19 CNS
LOX IMVI melanoma = test system: LOX IMVI melanoma
SN12C renal = test system: SN12C renal
NCI-H522 lung = test system: NCI-H522 lung

SMILES: O=S(=O)(c1ccccc1)n1c(C(O)c2ccccc2)cc2ccccc21 (stereo not given)
- TGI (EKVX NSCLC): 41.6 µM
- TGI (UACC-62 melanoma): 28 µM
- TGI (HT29 colon): 26.2 µM
- TGI (COLO 205 colon): 45.5 µM
- TGI (OVCAR-5 ovarian): 30.9 µM
- TGI (SF-268 CNS): 38.5 µM
- TGI (SF-539 CNS): 30.8 µM
- TGI (HCT-116 colon): 34.6 µM
- TGI (CAKI-1 renal): 47.3 µM
- TGI (A549 NSCLC): 35.3 µM
- TGI (MDA-MB-231 breast): 49.2 µM
- TGI (HL-60(TB) leukemia): 34.9 µM
- TGI (OVCAR-4 ovarian): 50.2 µM
- TGI (MALME-3M melanoma): 39.2 µM
- TGI (PC-3 prostate): 30.2 µM
- TGI (HOP-62 NSCLC): 31.8 µM
- TGI (A498 renal): 26.5 µM
- TGI (SF-295 CNS): 32.2 µM
- TGI (TK-10 renal): 33.6 µM
- TGI (SK-OV-3 ovarian): 29 µM
- TGI (BT-549 breast): 32.2 µM
- TGI (RXF 393 renal): 30.5 µM
- TGI (CCRF-CEM leukemia): 28.9 µM
- TGI (NCI-H460 lung): > 100 µM
- TGI (SW-620 colon): 64.7 µM
- TGI (NCI-H23 lung): 41.9 µM
- TGI (HOP-92 NSCLC): 38.4 µM
- TGI (M14 melanoma): 28.1 µM
- TGI (SK-MEL-28 melanoma): 39.9 µM
- TGI (KM12 colon): 30.3 µM
- TGI (MDA-MB-435): 36.4 µM
- TGI (MCF7 breast): 40.9 µM
- TGI (K-562 leukemia): > 100 µM
- TGI (U251 CNS): 43.7 µM
- TGI (SNB-75 CNS): 35.7 µM
- TGI (OVCAR-3 ovarian): 30.3 µM
- TGI (SK-MEL-2 melanoma): 31.3 µM
- TGI (NCI/ADR-RES ovarian): 30.3 µM
- TGI (RPMI-8226 leukemia): > 100 µM
- TGI (OVCAR-8 ovarian): 49.9 µM
- TGI (IGROV1 ovarian): 35.4 µM
- TGI (ACHN renal): 29.1 µM
- TGI (UO-31 renal): 24 µM
- TGI (NCI-H226 lung): 29.3 µM
- TGI (SK-MEL-5 melanoma): 32.4 µM
- TGI (UACC-257 melanoma): 34.4 µM
- TGI (HCC-2998 colon): 33.2 µM
- TGI (786-0 renal): 29.6 µM
- TGI (T-47D breast): 65.8 µM
- TGI (DU-145 prostate): > 100 µM
- TGI (HS 578T breast): 27.9 µM
- TGI (MOLT-4 leukemia): > 100 µM
- TGI (HCT-15 colon): 61.3 µM
- TGI (SNB-19 CNS): 26.7 µM
- TGI (LOX IMVI melanoma): > 100 µM

SMILES: COc1cc2c3c(n(CCCNC4=NCCS4)c(=O)c2cc1OC)-c1cc2c(cc1C3=O)OCO2
- GI50 (EKVX NSCLC): 1.79 µM
- TGI (EKVX NSCLC): 8.8 µM
- GI50 (UACC-62 melanoma): 0.0559 µM
- TGI (UACC-62 melanoma): 1.66 µM
- GI50 (HT29 colon): < 0.0347 µM
- TGI (HT29 colon): 0.756 µM
- TGI (COLO 205 colon): 4.09 µM
- GI50 (OVCAR-5 ovarian): 0.668 µM
- TGI (OVCAR-5 ovarian): 2.08 µM
- GI50 (SF-268 CNS): 0.188 µM
- TGI (SF-268 CNS): 5.19 µM
- GI50 (SF-539 CNS): < 0.0122 µM
- TGI (SF-539 CNS): 0.283 µM
- GI50 (HCT-116 colon): < 0.01 µM
- TGI (HCT-116 colon): 0.127 µM
- GI50 (CAKI-1 renal): < 0.01 µM
- TGI (CAKI-1 renal): 0.749 µM
- GI50 (A549 NSCLC): < 0.01 µM
- TGI (A549 NSCLC): 1.33 µM
- GI50 (MDA-MB-231 breast): 0.465 µM
- TGI (MDA-MB-231 breast): 1.02 µM
- GI50 (HL-60(TB) leukemia): 0.142 µM
- GI50 (OVCAR-4 ovarian): 1.82 µM
- TGI (OVCAR-4 ovarian): 6.1 µM
- GI50 (MALME-3M melanoma): 1.44 µM
- TGI (MALME-3M melanoma): 5.41 µM
- GI50 (PC-3 prostate): 0.722 µM
- TGI (PC-3 prostate): 3.51 µM
- GI50 (HOP-62 NSCLC): < 0.01 µM
- GI50 (A498 renal): 1.52 µM
- TGI (A498 renal): 7.68 µM
- GI50 (SF-295 CNS): < 0.01 µM
- TGI (SF-295 CNS): 1.42 µM
- GI50 (TK-10 renal): 4.59 µM
- TGI (TK-10 renal): 10.6 µM
- TGI (SK-OV-3 ovarian): 3.18 µM
- GI50 (BT-549 breast): 1.73 µM
- TGI (BT-549 breast): 9.3 µM
- GI50 (CCRF-CEM leukemia): < 0.01 µM
- GI50 (NCI-H23 lung): < 0.0123 µM
- TGI (NCI-H23 lung): 0.128 µM
- TGI (HOP-92 NSCLC): 1.95 µM
- GI50 (M14 melanoma): < 0.01 µM
- TGI (M14 melanoma): 0.201 µM
- GI50 (SK-MEL-28 melanoma): 1.12 µM
- TGI (SK-MEL-28 melanoma): 3.21 µM
- GI50 (SN12C renal): < 0.0255 µM
- TGI (SN12C renal): 0.408 µM
- GI50 (KM12 colon): 1.11 µM
- TGI (KM12 colon): 3.11 µM
- TGI (MDA-MB-435): 1.83 µM
- GI50 (MCF7 breast): < 0.01 µM
- GI50 (K-562 leukemia): < 0.01 µM
- TGI (K-562 leukemia): 0.631 µM
- GI50 (U251 CNS): < 0.01 µM
- TGI (U251 CNS): 0.197 µM
- TGI (SNB-75 CNS): 1.44 µM
- GI50 (OVCAR-3 ovarian): 0.203 µM
- TGI (OVCAR-3 ovarian): 2.09 µM
- GI50 (SK-MEL-2 melanoma): 9.98 µM
- TGI (SK-MEL-2 melanoma): > 80.6 µM
- GI50 (NCI/ADR-RES ovarian): < 0.0183 µM
- TGI (NCI/ADR-RES ovarian): 0.319 µM
- GI50 (RPMI-8226 leukemia): < 0.0145 µM
- TGI (RPMI-8226 leukemia): 0.296 µM
- TGI (OVCAR-8 ovarian): 2.11 µM
- GI50 (IGROV1 ovarian): 0.197 µM
- TGI (IGROV1 ovarian): > 100 µM
- GI50 (ACHN renal): < 0.01 µM
- TGI (ACHN renal): 0.135 µM
- GI50 (UO-31 renal): 0.147 µM
- TGI (UO-31 renal): > 100 µM
- GI50 (NCI-H226 lung): 0.0456 µM
- TGI (NCI-H226 lung): 0.913 µM
- GI50 (SK-MEL-5 melanoma): 0.236 µM
- TGI (SK-MEL-5 melanoma): 2.23 µM
- GI50 (UACC-257 melanoma): 1.21 µM
- TGI (UACC-257 melanoma): 5.67 µM
- GI50 (HCC-2998 colon): < 0.01 µM
- GI50 (786-0 renal): < 0.01 µM
- TGI (786-0 renal): 0.0371 µM
- TGI (T-47D breast): 2.7 µM
- GI50 (DU-145 prostate): < 0.01 µM
- TGI (DU-145 prostate): 1.31 µM
- GI50 (HS 578T breast): 1.4 µM
- TGI (HS 578T breast): 3.85 µM
- GI50 (MOLT-4 leukemia): < 0.01 µM
- GI50 (HCT-15 colon): 0.823 µM
- TGI (HCT-15 colon): 3.67 µM
- GI50 (SNB-19 CNS): 1.03 µM
- TGI (SNB-19 CNS): > 100 µM
- GI50 (LOX IMVI melanoma): < 0.01 µM
- TGI (LOX IMVI melanoma): 0.232 µM
- GI50 (NCI-H522 lung): 0.174 µM
- TGI (NCI-H522 lung): > 56.2 µM

Reference: PubChem BioAssay (NCI)
